Several values for one entry are separate records, joined by “and”; a condition that tells them apart may be missing. Equal entries are not always repeated. Records with an inconclusive call do not appear.
System: B6C3F1 mice, colon carcinoma 38 s.c., T/C
Experiment: NCI In Vivo Anticancer Drug Screen. Data for tumor model Colon Carcinoma 38 (subcutaneous) in B6C3F1 mice
Conditions: higher = larger tumour
Experimental: The antitumor activity of compounds was measured in mice bearing transplantable tumors. Survival or tumor size were measured and the results are expressed as the measurement made in the treated group (T) divided by the measurement made in the vehicle treated control group (C). The tumor model used in this assay is Colon Carcinoma 38 (subcutaneous) in B6C3F1 mice

[1] = endpoint: median tumor weight (est.), dose: 100.0 mg/kg/injection, schedule: Q07DX002 (ip), vehicle: saline
[2] = endpoint: median tumor weight (est.), dose: 200.0 mg/kg/injection, schedule: Q07DX002 (ip), vehicle: saline
[3] = endpoint: median tumor weight (est.), dose: 12.5 mg/kg/injection, schedule: Q07DX002 (ip), vehicle: saline
[4] = endpoint: median tumor weight (est.), dose: 25.0 mg/kg/injection, schedule: Q07DX002 (ip), vehicle: saline
[5] = endpoint: median tumor weight (est.), dose: 50.0 mg/kg/injection, schedule: Q07DX002 (ip), vehicle: saline
[6] = endpoint: median tumor weight (est.), dose: 25.0 mg/kg/injection, schedule: Q07DX002 (ip), vehicle: saline with Tween-80
[7] = endpoint: median tumor weight (est.), dose: 50.0 mg/kg/injection, schedule: Q07DX002 (ip), vehicle: saline with Tween-80
[8] = endpoint: median tumor weight (est.), dose: 100.0 mg/kg/injection, schedule: Q07DX002 (ip), vehicle: saline with Tween-80
[9] = endpoint: median tumor weight (est.), dose: 200.0 mg/kg/injection, schedule: Q07DX002 (ip), vehicle: saline with Tween-80
[10] = endpoint: median tumor weight (est.), dose: 25.0 mg/kg/injection, schedule: Q07DX002 (ip), vehicle: Klucel (hydroxypropylcellulose) (HPC)
[11] = endpoint: median tumor weight (est.), dose: 50.0 mg/kg/injection, schedule: Q07DX002 (ip), vehicle: Klucel (hydroxypropylcellulose) (HPC)
[12] = endpoint: median tumor weight (est.), dose: 100.0 mg/kg/injection, schedule: Q07DX002 (ip), vehicle: Klucel (hydroxypropylcellulose) (HPC)
[13] = endpoint: median tumor weight (est.), dose: 200.0 mg/kg/injection, schedule: Q07DX002 (ip), vehicle: Klucel (hydroxypropylcellulose) (HPC)
[14] = endpoint: median tumor weight (est.), dose: 400.0 mg/kg/injection, schedule: Q07DX002 (ip), vehicle: Klucel (hydroxypropylcellulose) (HPC)
[15] = endpoint: median tumor weight (est.), dose: 200.0 mg/kg/injection, schedule: Q07DX002 (ip), vehicle: other

CC(=O)OC1C(O)C(C)OC(OC2C(OC(=O)C3CCC4C(C3)OC3(CC(OC(=O)/C=C/c5ccccc5)C(C)CO3)C43CO3)OC(C)C(O)C2OC(C)=O)C1O (stereo not drawn)
T/C (endpoint: median tumor weight (est.), dose: 3.75 mg/kg/injection, schedule: Q07DX002 (ip), vehicle: distilled water + Tween-80): 93 % of control | T/C (endpoint: median tumor weight (est.), dose: 7.5 mg/kg/injection, schedule: Q07DX002 (ip), vehicle: distilled water + Tween-80): 95 % of control | T/C (endpoint: median tumor weight (est.), dose: 15.0 mg/kg/injection, schedule: Q07DX002 (ip), vehicle: distilled water + Tween-80): 64 % of control | T/C (endpoint: median tumor weight (est.), dose: 30.0 mg/kg/injection, schedule: Q07DX002 (ip), vehicle: distilled water + Tween-80): 168 % of control | T/C (endpoint: median tumor weight (est.), dose: 60.0 mg/kg/injection, schedule: Q07DX002 (ip), vehicle: distilled water + Tween-80): 168 % of control

O=C(O)COc1cccc2c(=O)cc(-c3ccccc3)oc12
T/C [1]: 52 % of control | T/C [2]: 109 % of control

CCN(CC)CCNc1ccc(C)c2sc3ccccc3c(=O)c12
T/C (endpoint: median tumor weight (est.), dose: 50.0 mg/kg/injection, schedule: Q07DX002 (ip), vehicle: suspension in saline): 66 % of control | T/C (endpoint: median tumor weight (est.), dose: 100.0 mg/kg/injection, schedule: Q07DX002 (ip), vehicle: suspension in saline): 42 % of control | T/C (endpoint: median tumor weight (est.), dose: 200.0 mg/kg/injection, schedule: Q07DX002 (ip), vehicle: suspension in saline): 2 % of control

O=P(O)(NCCCl)NCCCl
T/C [3]: 52 % of control | T/C [4]: 100 % of control | T/C [5]: 60 % of control

Oc1ccc(CCl)c2cccnc12
T/C [4]: 91 % of control | T/C [5]: 105 % of control | T/C [1]: 94 % of control | T/C [2]: 106 % of control

O=C1[C@H]2CCC[C@H]2[C@H]2CCC[C@@H]12
T/C [6]: 106 % of control and 109 % of control | T/C [7]: 95 % of control and 107 % of control | T/C [8]: 41 % of control | T/C [9]: 100 % of control and 116 % of control | T/C (endpoint: median tumor weight (est.), dose: 400.0 mg/kg/injection, schedule: Q07DX002 (ip), vehicle: saline with Tween-80): 104 % of control

CCNC(=O)[B-][N+](C)(C)C
T/C [10]: 101 % of control | T/C [11]: 55 % of control | T/C [12]: 87 % of control | T/C [13]: 107 % of control | T/C [14]: 81 % of control

Nc1ccc2c(c1)CN1C(=O)c3ccccc3C1=N2
T/C (endpoint: median tumor weight (est.), dose: 6.25 mg/kg/injection, schedule: Q01DX008 (ip), vehicle: other): 90 % of control | T/C (endpoint: median tumor weight (est.), dose: 12.5 mg/kg/injection, schedule: Q01DX008 (ip), vehicle: other): 69 % of control | T/C (endpoint: median tumor weight (est.), dose: 25.0 mg/kg/injection, schedule: Q01DX008 (ip), vehicle: other): 58 % of control | T/C (endpoint: median tumor weight (est.), dose: 25.0 mg/kg/injection, schedule: Q07DX002 (ip), vehicle: other): 82 % of control and 92 % of control | T/C [6]: 60 % of control | T/C (endpoint: median tumor weight (est.), dose: 50.0 mg/kg/injection, schedule: Q01DX008 (ip), vehicle: other): 21 % of control | T/C [7]: 56 % of control | T/C (endpoint: median tumor weight (est.), dose: 100.0 mg/kg/injection, schedule: Q07DX002 (ip), vehicle: other): 49 % of control | T/C [8]: 60 % of control | T/C [15]: 1 % of control | T/C [9]: 35 % of control | T/C (endpoint: median tumor weight (est.), dose: 355.9 mg/kg/injection, schedule: Q07DX002 (oral), vehicle: DMSO): 74 % of control | T/C (endpoint: median tumor weight (est.), dose: 533.6 mg/kg/injection, schedule: Q07DX002 (oral), vehicle: DMSO): 94 % of control | T/C (endpoint: median tumor weight (est.), dose: 800.0 mg/kg/injection, schedule: Q07DX002 (oral), vehicle: DMSO): 76 % of control | T/C (endpoint: median tumor weight (est.), dose: 1200.0 mg/kg/injection, schedule: Q07DX002 (oral), vehicle: DMSO): 122 % of control | T/C (endpoint: optimum tumor weight change, dose: 86.0 mg/kg/injection, schedule: Q07DX002 (ip), vehicle: saline with Tween-80): 77 % of control | T/C (endpoint: optimum tumor weight change, dose: 144.0 mg/kg/injection, schedule: Q07DX002 (ip), vehicle: saline with Tween-80): 84 % of control | T/C (endpoint: optimum tumor weight change, dose: 240.0 mg/kg/injection, schedule: Q07DX002 (ip), vehicle: saline with Tween-80): 84 % of control | T/C (endpoint: optimum tumor weight change, dose: 400.0 mg/kg/injection, schedule: Q07DX002 (ip), vehicle: saline with Tween-80): 71 % of control

Cc1ccc(NCCN(C)C)c2c(=O)c3cc(O)ccc3sc12
T/C [10]: 86 % of control | T/C [11]: 90 % of control and 210 % of control | T/C [12]: 67 % of control | T/C [14]: 48 % of control

O=C(O)Cc1cccc2c(=O)cc(C3CCCCC3)oc12
T/C [1]: 90 % of control | T/C (endpoint: median tumor weight (est.), dose: 400.0 mg/kg/injection, schedule: Q07DX002 (ip), vehicle: saline): 82 % of control

C[C@@]1(CO)[C@H](O)CC[C@@]2(C)[C@H]1CC[C@H]1C[C@@H]3C[C@@]12CC[C@@]3(O)COC(=O)CN
T/C (endpoint: median tumor weight (est.), dose: 0.4 mg/kg/injection, schedule: Q07DX002 (ip), vehicle: saline + alcohol): 61 % of control | T/C (endpoint: median tumor weight (est.), dose: 0.8 mg/kg/injection, schedule: Q07DX002 (ip), vehicle: saline + alcohol): 88 % of control | T/C (endpoint: median tumor weight (est.), dose: 1.6 mg/kg/injection, schedule: Q07DX002 (ip), vehicle: saline + alcohol): 54 % of control | T/C (endpoint: median tumor weight (est.), dose: 3.2 mg/kg/injection, schedule: Q07DX002 (ip), vehicle: saline + alcohol): 63 % of control | T/C (endpoint: median tumor weight (est.), dose: 6.4 mg/kg/injection, schedule: Q07DX002 (ip), vehicle: saline + alcohol): 106 % of control

CCC/C=C/C=C/C(=O)OC1/C(=C/C(=O)OC)CC2CC(C(C)O)OC(=O)CC(O)CC3CC(OC(C)=O)C(C)(C)C(O)(CC4C/C(=C/C(=O)OC)CC(/C=C/C(C)(C)C1(O)O2)O4)O3 (stereo not drawn)
T/C (endpoint: median tumor weight (est.), dose: 37.5 micrograms/kg/injection, schedule: Q07DX002 (ip), vehicle: saline + alcohol): 191 % of control | T/C (endpoint: median tumor weight (est.), dose: 300.0 micrograms/kg/injection, schedule: Q07DX002 (ip), vehicle: saline + alcohol): 74 % of control

CC1(C)OCC2OC=CC(=O)C2O1 (stereo not drawn)
T/C [9]: 222 % of control

CN(CCN(C)C(=O)CCOS(C)(=O)=O)C(=O)CCOS(C)(=O)=O
T/C [3]: 121 % of control | T/C [4]: 92 % of control | T/C [5]: 51 % of control | T/C [1]: 51 % of control | T/C [2]: 12 % of control

NC(=O)c1ccc[n+](Cc2c(Cl)cccc2Cl)c1
T/C [4]: 86 % of control | T/C [5]: 94 % of control

CCCCCc1cc(O)c2c(c1)OC(C)(C)[C@@H]1CCC(C)=C[C@@H]21
T/C [15]: 81 % of control | T/C (endpoint: median tumor weight (est.), dose: 400.0 mg/kg/injection, schedule: Q07DX002 (ip), vehicle: other): 98 % of control

Cc1cc(N/N=C/c2ccccn2)nc2ccccc12
T/C [11]: 65 % of control | T/C [12]: 90 % of control | T/C [13]: 74 % of control

NC1(C(=O)O)CCCC1
T/C (endpoint: median tumor weight (est.), dose: 50.0 mg/kg/injection, schedule: Q07DX003 (ip), vehicle: saline): 69 % of control | T/C (endpoint: median tumor weight (est.), dose: 100.0 mg/kg/injection, schedule: Q07DX003 (ip), vehicle: saline): 81 % of control | T/C (endpoint: median tumor weight (est.), dose: 200.0 mg/kg/injection, schedule: Q07DX003 (ip), vehicle: saline): 39 % of control

CCN(CC)CCOC(=O)Cc1cc(OC)cc2c(=O)cc(-c3ccccc3)oc12
T/C [13]: 37 % of control | T/C [14]: 73 % of control

COCCCNC1=C(C#N)C(=O)NC(c2cccc([N+](=O)[O-])c2)S1 (stereo not drawn)
T/C (endpoint: median tumor weight (est.), dose: 225.0 mg/kg/injection, schedule: Q07DX002 (ip), vehicle: saline with Tween-80): 172 % of control | T/C (endpoint: median tumor weight (est.), dose: 450.0 mg/kg/injection, schedule: Q07DX002 (ip), vehicle: saline with Tween-80): 171 % of control | T/C (endpoint: median tumor weight (est.), dose: 900.0 mg/kg/injection, schedule: Q07DX002 (ip), vehicle: saline with Tween-80): 159 % of control

O=C(CCBr)N1CCN(C(=O)CCBr)CC1
T/C (endpoint: median tumor weight (est.), dose: 40.0 mg/kg/injection, schedule: Q07DX002 (ip), vehicle: saline with Tween-80): 81 % of control | T/C (endpoint: median tumor weight (est.), dose: 80.0 mg/kg/injection, schedule: Q07DX002 (ip), vehicle: saline with Tween-80): 20 % of control and 33 % of control | T/C (endpoint: median tumor weight (est.), dose: 320.0 mg/kg/injection, schedule: Q07DX002 (ip), vehicle: saline with Tween-80): 6 % of control

CCC(/C=C/C1OC(=O)C=CC1C)=C\C(C)C/C=C/C(C)=C/C(C)C(=O)C(C)C(O)C(C)C/C(C)=C/C(=O)O (stereo not drawn)
T/C (endpoint: median tumor weight (est.), dose: 100.0 micrograms/kg/injection, schedule: Q07DX002 (ip), vehicle: other): 56 % of control | T/C (endpoint: median tumor weight (est.), dose: 200.0 micrograms/kg/injection, schedule: Q07DX002 (ip), vehicle: other): 105 % of control | T/C (endpoint: median tumor weight (est.), dose: 400.0 micrograms/kg/injection, schedule: Q07DX002 (ip), vehicle: other): 85 % of control | T/C (endpoint: median tumor weight (est.), dose: 800.0 micrograms/kg/injection, schedule: Q07DX002 (ip), vehicle: other): 102 % of control | T/C (endpoint: median tumor weight (est.), dose: 1600.0 micrograms/kg/injection, schedule: Q07DX002 (ip), vehicle: other): 98 % of control

— PubChem BioAssay AID214 (DTP/NCI, 2004)
